# Assay results as given in patent US20120028897A1, “METHODS AND COMPOSITIONS FOR THE TREATMENT OF FLUID RETENTION DISORDERS” (priority 2008, published 2012).
# How the values were obtained:
# Type in all cases: in vivo, rat
# anesthetized rats [1] = test: Renal potassium excretion during and after iv peptide infusion in anesthetized rats
# Procedure: (§1) Rats were not fasted prior to clearance experiments and ranged in weight from 250-340 g at the time of study. Anesthesia was induced with an intraperitoneal injection of pentobarbital sodium (55 mg/kg BW) and maintained at a surgical plane by intermittent intravenous supplementation. Core temperature was maintained at 37° C. by a servo-controlled, heated operating table. Animals breathed spontaneously through a PE240 cannula inserted into the trachea. A jugular vein was catheterized with PE50 cannula tubing for intravenous infusion of isotonic saline containing FITC-labeled inulin (0.4% W/V, Sigma, St Louis Mo.) and two PE10 cannulae, one for supplemental anesthetic and the other for peptide infusions (described below in the experimental protocol section). The ureters were exposed through a midline ventral incision and cannulated with PE10 tubing about one cm from each kidney. Urine was collected over 20 min periods and the volume estimated by weight. A femoral artery was cannulated with PE50 tubing for continuous measurement of arterial blood pressure and intermittent blood samples (50 μl), taken at the mid point of each urine collection.
# (§2) Arterial blood pressure was measured with a pressure transducer connected to a cardiovascular analyzer (Model 50110, Stoelting Instruments Wood Dale, Ill.). Left renal blood flow was measured in some rats with a flow probe positioned on the left renal artery and connected to a blood flow monitor (model 1 PRB probe and model T420 monitor, Transonic Systems Inc. Ithaca N.Y.). Arterial pressure, heart rate, and renal blood flow were digitized with an A/D converter (Keithley instruments, Cleveland, Ohio Model KUSB 3100) for display and storage on a Windows-based personal computer using open layers data acquisition software (Dtx_Ez, Data Translation Inc, Marlboro, Mass.). Sodium and potassium concentrations in plasma and urine were measured by flame photometry (Model 943, Instrumentation Laboratory Co., Lexington Mass.). Glomerular filtration rate (GFR) was measured as the renal clearance rate of FITC-labeled inulin
# (§3) After post-surgical equilibration (−60 min) and three 20 min control clearance periods, huUgnA or B was infused into the jugular vein at 10 μl/min over a 60 min period, followed by a return to isotonic saline for the remainder of the experiment. The infused doses of huUgnA were 12, 25, 50, 100, or 200 nmol/kg BW in a total of 38 rats; huUgnB doses were 9, 18, 35, 70, and 140 nmol/kg BW in 35 rats. A UgnA mimetic, E. coli STh (ST-core), was infused into a third group of 32 rats at doses of 17, 32, 66, 133, and 266 nmol/kg. Renal excretory responses to these infusions were slow to develop and long lasting, so clearance periods were continued for 2-3 hr after the termination of the peptide infusion. This protracted time course limited protocols to one dose of one peptide in each rat. A control group of 10 rats received isotonic saline at 10 μl/min in place of the peptide infusion, but was otherwise treated in the same way as the experimental groups.
# Sodium and potassium excretion rates are expressed as absolute values (UNaV and UKV) or factored by filtered load to provide fractional excretion (FENa and FEK). Glomerular filtration rate (GFR) was equated with inulin clearance. The net natriuretic response to peptide infusions was assessed by summing total Na excretion during infusion and post-infusion collection periods in each rat after subtraction of corresponding mean values obtained from the control group. The cumulative net excretion obtained in this way provides a measure of the natriuretic response to each dose of peptide infused. Results from both kidneys were averaged for each rat before calculating group means±sem.
# Group comparisons were made with one way analysis of variance (ANOVA) using peptide doses as column variables. […]
# anesthetized rats [2] = test: Mean arterial blood pressure during and after iv peptide infusion
# Procedure: as §1, §2, §3
# (§4) Group comparisons were made with one way analysis of variance (ANOVA) using peptide doses as column variables. Columns were further divided into pre-infusion, infusion, and post infusion subgroups to facilitate post hoc testing with Bonferroni's method for selected multiple comparisons. Row variables were individual measurements from each clearance period for each rat. Responses were tested for statistical significance by comparing control values during the pre-infusion, infusion and post infusion collection periods with corresponding values obtained from peptide-infused rats. Each experimental group included 5 different doses of huUgnA, huUgnB, or ST-core. Thus, fifteen comparisons were required for each measured variable in each group.
# anesthetized rats [3] = test: Urine flow rate during and after iv peptide infusion
# Procedure: as §1, §3, §4
# anesthetized rats [4] = test: Renal blood flow (flow probe on left renal artery)
# Procedure: as §2, §3
compound,measurement,setting,value
"CC(C)C[C@H](NC(=O)[C@@H]1CSSC[C@@H]2NC(=O)[C@H](CC(C)C)NC(=O)[C@H](CCC(=O)O)NC(=O)[C@@H](NC(=O)[C@H](CC(=O)O)NC(=O)[C@H](CC(=O)O)NC(=O)[C@@H](N)CC(N)=O)CSSC[C@H](NC(=O)[C@H](C)NC(=O)[C@H](C(C)C)NC(=O)[C@H](CC(N)=O)NC(=O)[C@H](C(C)C)NC2=O)C(=O)N[C@@H]([C@@H](C)O)C(=O)NCC(=O)N1)C(=O)O (single isomer, unassigned) [huUgnA, Asn Asp Asp Cys Glu Leu Cys Val Asn Val Ala Cys Thr Gly Cys Leu, reference compound]",increase in UKV during or after infusion,anesthetized rats [1]; any dose tested,no statistically significant increases
same,FEK (fractional potassium excretion),"anesthetized rats [1]; huUgnA 12 nmol, Infuse",29.8 ± 3.6 % of filtered
same,UKV (potassium excretion),"anesthetized rats [1]; huUgnA 12 nmol, Infusion",1097 ± 54 nEq/min/g KW
same,FEK (fractional potassium excretion),"anesthetized rats [1]; huUgnA 12 nmol, Post-infuse",34.9 ± 2.7 % of filtered
same,UKV (potassium excretion),"anesthetized rats [1]; huUgnA 12 nmol, Post-infuse",1299 ± 51 nEq/min/g KW
same,FEK (fractional potassium excretion),"anesthetized rats [1]; huUgnA 12 nmol, Pre-infuse",18.8 ± 2.3 % of filtered
same,UKV (potassium excretion),"anesthetized rats [1]; huUgnA 12 nmol, Pre-infuse",709 ± 74 nEq/min/g KW
same,FEK (fractional potassium excretion),"anesthetized rats [1]; huUgnA 25 nmol, Infuse",40.7 ± 3.5 % of filtered
same,UKV (potassium excretion),"anesthetized rats [1]; huUgnA 25 nmol, Infusion",1292 ± 80 nEq/min/g KW
same,FEK (fractional potassium excretion),"anesthetized rats [1]; huUgnA 25 nmol, Post-infuse",46.5 ± 3.8 % of filtered
same,UKV (potassium excretion),"anesthetized rats [1]; huUgnA 25 nmol, Post-infuse",1309 ± 68 nEq/min/g KW
same,FEK (fractional potassium excretion),"anesthetized rats [1]; huUgnA 25 nmol, Pre-infuse",25.6 ± 2.4 % of filtered
same,UKV (potassium excretion),"anesthetized rats [1]; huUgnA 25 nmol, Pre-infuse",780 ± 69 nEq/min/g KW
same,FEK (fractional potassium excretion),"anesthetized rats [1]; huUgnA 50 nmol, Infuse",32.0 ± 2.7 % of filtered
same,UKV (potassium excretion),"anesthetized rats [1]; huUgnA 50 nmol, Infusion",988 ± 66 nEq/min/g KW
same,FEK (fractional potassium excretion),"anesthetized rats [1]; huUgnA 50 nmol, Post-infuse",36.3 ± 3.6 % of filtered
same,UKV (potassium excretion),"anesthetized rats [1]; huUgnA 50 nmol, Post-infuse",1180 ± 57 nEq/min/g KW
same,FEK (fractional potassium excretion),"anesthetized rats [1]; huUgnA 50 nmol, Pre-infuse",20.8 ± 2.1 % of filtered
same,UKV (potassium excretion),"anesthetized rats [1]; huUgnA 50 nmol, Pre-infuse",722 ± 52 nEq/min/g KW
same,FEK (fractional potassium excretion),"anesthetized rats [1]; huUgnA 100 nmol, Infuse",28.0 ± 3.5 % of filtered
same,UKV (potassium excretion),"anesthetized rats [1]; huUgnA 100 nmol, Infusion",878 ± 60 nEq/min/g KW
same,FEK (fractional potassium excretion),"anesthetized rats [1]; huUgnA 100 nmol, Post-infuse",29.9 ± 2.9 % of filtered
same,UKV (potassium excretion),"anesthetized rats [1]; huUgnA 100 nmol, Post-infuse",970 ± 72 nEq/min/g KW
same,FEK (fractional potassium excretion),"anesthetized rats [1]; huUgnA 100 nmol, Pre-infuse",19.3 ± 2.5 % of filtered
same,UKV (potassium excretion),"anesthetized rats [1]; huUgnA 100 nmol, Pre-infuse",602 ± 51 nEq/min/g KW
same,FEK (fractional potassium excretion),"anesthetized rats [1]; huUgnA 200 nmol, Infuse",40.8 ± 7.7 % of filtered
same,UKV (potassium excretion),"anesthetized rats [1]; huUgnA 200 nmol, Infusion",1203 ± 161 nEq/min/g KW
same,UKV (potassium excretion),"anesthetized rats [1]; huUgnA 200 nmol, Post-infuse",1380 ± 73 nEq/min/g KW
same,FEK (fractional potassium excretion),"anesthetized rats [1]; huUgnA 200 nmol, Post-infuse, *** p<0.005 vs time control",57.5 ± 6.7*** % of filtered
same,FEK (fractional potassium excretion),"anesthetized rats [1]; huUgnA 200 nmol, Pre-infuse",27.7 ± 5.9 % of filtered
same,UKV (potassium excretion),"anesthetized rats [1]; huUgnA 200 nmol, Pre-infuse",860 ± 118 nEq/min/g KW
same,FEK vs control,"anesthetized rats [1]; post infusion period, only after the highest doses",increased over control levels
same,BP (mean arterial blood pressure),"anesthetized rats [2]; huUgnA 12 nmol, Infusion",110 ± 4 mmHg
same,BP (mean arterial blood pressure),"anesthetized rats [2]; huUgnA 12 nmol, Post-infuse",104 ± 3 mmHg
same,BP (mean arterial blood pressure),"anesthetized rats [2]; huUgnA 12 nmol, Pre-infuse",121 ± 4 mmHg
same,BP (mean arterial blood pressure),"anesthetized rats [2]; huUgnA 25 nmol, Infusion",111 ± 4 mmHg
same,BP (mean arterial blood pressure),"anesthetized rats [2]; huUgnA 25 nmol, Post-infuse",105 ± 4 mmHg
same,BP (mean arterial blood pressure),"anesthetized rats [2]; huUgnA 25 nmol, Pre-infuse",119 ± 3 mmHg
same,BP (mean arterial blood pressure),"anesthetized rats [2]; huUgnA 50 nmol, Infusion",106 ± 3 mmHg
same,BP (mean arterial blood pressure),"anesthetized rats [2]; huUgnA 50 nmol, Post-infuse",101 ± 3 mmHg
same,BP (mean arterial blood pressure),"anesthetized rats [2]; huUgnA 50 nmol, Pre-infuse",117 ± 3 mmHg
same,BP (mean arterial blood pressure),"anesthetized rats [2]; huUgnA 100 nmol, Infusion",115 ± 3 mmHg
same,BP (mean arterial blood pressure),"anesthetized rats [2]; huUgnA 100 nmol, Post-infuse",109 ± 4 mmHg
same,BP (mean arterial blood pressure),"anesthetized rats [2]; huUgnA 100 nmol, Pre-infuse",121 ± 4 mmHg
same,BP (mean arterial blood pressure),"anesthetized rats [2]; huUgnA 200 nmol, Infusion",113 ± 5 mmHg
same,BP (mean arterial blood pressure),"anesthetized rats [2]; huUgnA 200 nmol, Post-infuse",112 ± 4 mmHg
same,BP (mean arterial blood pressure),"anesthetized rats [2]; huUgnA 200 nmol, Pre-infuse",121 ± 7 mmHg
same,V (urine flow rate),"anesthetized rats [3]; huUgnA 12 nmol, Infusion",2.34 ± 0.14 μl/min/g KW
same,V (urine flow rate),"anesthetized rats [3]; huUgnA 12 nmol, Post-infuse",2.73 ± 0.14 μl/min/g KW
same,V (urine flow rate),"anesthetized rats [3]; huUgnA 12 nmol, Pre-infuse",2.07 ± 0.23 μl/min/g KW
same,V (urine flow rate),"anesthetized rats [3]; huUgnA 25 nmol, Infusion",2.98 ± 0.28 μl/min/g KW
same,V (urine flow rate),"anesthetized rats [3]; huUgnA 25 nmol, Post-infuse, * p<0.05 vs time control",3.53 ± 0.25* μl/min/g KW
same,V (urine flow rate),"anesthetized rats [3]; huUgnA 25 nmol, Pre-infuse",2.13 ± 0.17 μl/min/g KW
same,V (urine flow rate),"anesthetized rats [3]; huUgnA 50 nmol, Infusion",2.32 ± 0.16 μl/min/g KW
same,V (urine flow rate),"anesthetized rats [3]; huUgnA 50 nmol, Post-infuse",3.07 ± 0.20 μl/min/g KW
same,V (urine flow rate),"anesthetized rats [3]; huUgnA 50 nmol, Pre-infuse",2.01 ± 0.13 μl/min/g KW
same,V (urine flow rate),"anesthetized rats [3]; huUgnA 100 nmol, Infusion",2.48 ± 0.26 μl/min/g KW
same,V (urine flow rate),"anesthetized rats [3]; huUgnA 100 nmol, Post-infuse",2.67 ± 0.23 μl/min/g KW
same,V (urine flow rate),"anesthetized rats [3]; huUgnA 100 nmol, Pre-infuse",1.76 ± 0.22 μl/min/g KW
same,V (urine flow rate),"anesthetized rats [3]; huUgnA 200 nmol, Infusion",2.84 ± 0.40 μl/min/g KW
same,V (urine flow rate),"anesthetized rats [3]; huUgnA 200 nmol, Post-infuse, ** p<0.01 vs time control",4.12 ± 0.35** μl/min/g KW
same,V (urine flow rate),"anesthetized rats [3]; huUgnA 200 nmol, Pre-infuse",2.14 ± 0.39 μl/min/g KW
same,Renal blood flow (RBF),"anesthetized rats [4]; 25 nmol UgnA, before (first value of change), n=4",2.7+0.3 ml/min/g KW
same,Renal blood flow (RBF),"anesthetized rats [4]; after 25 nmol UgnA, p<0.001, n=4",3.2+0.1 ml/min/g KW
